From patent publication US9650377B2, “Diazepinone derivatives” (Novartis AG, priority 2012, dated 2017)

Key:
human mGluR5a receptors = human mGluR5a receptors (Homo sapiens (Human), UniProt P41594); test: Inhibition of glutamate-induced elevation of intracellular calcium in L(tk−) cells expressing human mGluR5a receptors; assay type: cell-based; conditions: read-out: mGluR5 IC50
Description: Activity of compounds of the present invention was examined by determination to what extent the glutamate-induced elevation of the intracellular calcium concentration in L(tk−) cells expressing human mGluR5a receptors (see L. P. Daggett et al., Neuropharm. Vol. 34, pages 871-886, 1995) is inhibited by utilizing methods as described e.g. by L. P. Daggett et al., Neuropharm. Vol. 34, pages 871-886 (1995) and P. J. Flor et al., J. Neurochem. Vol. 67, pages 58-63 (1996).
(§1) Activity of compounds of the present invention with respect to mGluR1 antagonism was examined by an assay based on measurements of L-glutamate induced intracellular calcium increases using a 96 well plate-based Fluorometric Imaging Plate Reader (FLIPR), and CHO cells stably expressing human mGluR1.

human mGluR1 = human mGluR1 (Homo sapiens (Human), UniProt Q13255); test: mGluR1 antagonism: L-glutamate induced intracellular calcium increases, FLIPR, CHO cells stably expressing human mGluR1; assay type: cell-based; conditions: inhibition of glutamate-induced elevation of intracellular calcium
Description: as §1, with “mGluR1. L-glutamate induced robust calcium responses via human mGluR1 in a concentration-dependent manner and in the low micromolar range. The table below represents IC50 values of the inhibition of the glutamate-induced elevation of the intracellular calcium concentration.” for “mGluR1.”

Chain of human mGluR1 (Q13255 19-1194): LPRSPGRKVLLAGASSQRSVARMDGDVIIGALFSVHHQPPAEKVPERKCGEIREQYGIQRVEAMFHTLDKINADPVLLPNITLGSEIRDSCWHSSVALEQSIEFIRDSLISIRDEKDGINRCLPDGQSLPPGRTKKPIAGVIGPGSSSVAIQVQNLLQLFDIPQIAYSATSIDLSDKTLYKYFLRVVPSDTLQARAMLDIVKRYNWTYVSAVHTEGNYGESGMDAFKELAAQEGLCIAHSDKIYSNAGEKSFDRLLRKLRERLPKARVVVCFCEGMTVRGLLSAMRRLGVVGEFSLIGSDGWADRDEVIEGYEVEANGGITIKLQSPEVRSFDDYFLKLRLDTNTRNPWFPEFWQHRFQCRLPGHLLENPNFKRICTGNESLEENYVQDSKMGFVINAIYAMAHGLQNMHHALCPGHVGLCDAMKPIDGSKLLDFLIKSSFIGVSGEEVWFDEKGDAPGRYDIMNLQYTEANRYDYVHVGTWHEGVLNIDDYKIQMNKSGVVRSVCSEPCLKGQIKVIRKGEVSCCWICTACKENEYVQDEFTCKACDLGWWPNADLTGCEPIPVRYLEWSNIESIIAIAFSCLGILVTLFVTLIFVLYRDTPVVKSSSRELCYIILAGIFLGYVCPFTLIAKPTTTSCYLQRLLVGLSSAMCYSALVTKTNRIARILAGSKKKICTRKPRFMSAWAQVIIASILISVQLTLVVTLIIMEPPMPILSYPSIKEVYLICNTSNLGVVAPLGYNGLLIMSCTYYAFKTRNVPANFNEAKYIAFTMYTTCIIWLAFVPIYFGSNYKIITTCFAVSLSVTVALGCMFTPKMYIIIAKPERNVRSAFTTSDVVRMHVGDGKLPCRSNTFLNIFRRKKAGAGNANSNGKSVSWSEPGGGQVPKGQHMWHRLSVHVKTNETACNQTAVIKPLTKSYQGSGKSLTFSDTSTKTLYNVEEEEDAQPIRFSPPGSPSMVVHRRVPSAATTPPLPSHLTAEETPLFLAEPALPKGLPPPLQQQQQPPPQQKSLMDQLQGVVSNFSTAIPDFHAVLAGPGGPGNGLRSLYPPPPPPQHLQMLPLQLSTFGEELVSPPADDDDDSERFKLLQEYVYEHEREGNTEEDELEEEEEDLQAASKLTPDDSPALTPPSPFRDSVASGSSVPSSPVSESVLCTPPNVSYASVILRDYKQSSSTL
Chain of human mGluR5a receptors (P41594 other isoform, or with tags, fused parts or gaps): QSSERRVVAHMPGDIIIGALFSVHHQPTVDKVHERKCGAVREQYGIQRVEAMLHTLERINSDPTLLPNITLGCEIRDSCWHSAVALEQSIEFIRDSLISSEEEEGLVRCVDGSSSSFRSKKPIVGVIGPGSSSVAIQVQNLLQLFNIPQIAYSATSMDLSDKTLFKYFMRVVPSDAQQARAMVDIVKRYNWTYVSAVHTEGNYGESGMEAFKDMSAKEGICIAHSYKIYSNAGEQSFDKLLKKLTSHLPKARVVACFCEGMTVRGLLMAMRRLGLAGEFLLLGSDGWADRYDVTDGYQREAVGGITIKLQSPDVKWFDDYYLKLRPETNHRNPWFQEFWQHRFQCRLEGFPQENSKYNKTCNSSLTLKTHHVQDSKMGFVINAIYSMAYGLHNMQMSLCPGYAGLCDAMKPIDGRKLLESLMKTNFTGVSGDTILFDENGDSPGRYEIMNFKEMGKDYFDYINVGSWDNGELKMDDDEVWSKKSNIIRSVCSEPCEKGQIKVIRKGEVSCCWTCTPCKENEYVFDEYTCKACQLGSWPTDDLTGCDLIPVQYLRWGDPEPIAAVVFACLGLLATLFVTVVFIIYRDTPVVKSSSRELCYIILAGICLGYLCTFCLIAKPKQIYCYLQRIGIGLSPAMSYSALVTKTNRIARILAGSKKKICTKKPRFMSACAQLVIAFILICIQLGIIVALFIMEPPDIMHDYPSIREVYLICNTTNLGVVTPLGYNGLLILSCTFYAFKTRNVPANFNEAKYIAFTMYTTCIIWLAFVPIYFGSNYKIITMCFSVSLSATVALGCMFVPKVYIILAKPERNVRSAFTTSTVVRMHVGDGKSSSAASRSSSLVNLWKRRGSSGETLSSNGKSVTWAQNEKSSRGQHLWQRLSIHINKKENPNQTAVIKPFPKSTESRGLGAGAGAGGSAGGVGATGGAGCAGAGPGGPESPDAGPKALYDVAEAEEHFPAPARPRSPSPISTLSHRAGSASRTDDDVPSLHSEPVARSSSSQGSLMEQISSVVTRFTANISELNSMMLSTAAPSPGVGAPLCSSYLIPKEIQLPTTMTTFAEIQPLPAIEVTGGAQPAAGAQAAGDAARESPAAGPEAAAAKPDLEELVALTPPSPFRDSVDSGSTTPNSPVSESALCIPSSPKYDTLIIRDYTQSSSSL

IC50 (human mGluR5a receptors)	IC50 (human mGluR1)	SMILES
340 nM	> 10000 nM	CCOCc1cn(C2=NCC(=O)N3CCc4c(cccc4-c4nc(C)cs4)C3=C2)cn1 [Example 88i, 2-(4-(ethoxymethyl)-1H-imidazol-1-yl)-9-(4-methylthiazol-2-yl)-7,8-dihydro-[1,4]diazepino[7,1-a]isoquinolin-5(4H)-one]
10 nM	35 nM	Cn1cc(C2=NCC(=O)N3CCc4c(I)cccc4C3=C2)cn1 [Example 32, 9-iodo-2-(1-methyl-1H-pyrazol-4-yl)-7,8-dihydro-[1,4]diazepino[7,1-a]isoquinolin-5(4H)-one]
495 nM	> 10000 nM	CCc1cn(C2=NCC(=O)N3CCc4c(cccc4C(C)O)C3=C2)cn1 (racemic) [Example 115, 2-(4-ethyl-1H-imidazol-1-yl)-9-(1-hydroxyethyl)-7,8-dihydro-[1,4]diazepino[7,1-a]isoquinolin-5(4H)-one]

SMILES	IC50 (human mGluR5a receptors)	IC50 (human mGluR1)
Cc1nc(-c2cccc3c2CCN2C(=O)CN=C(n4cnc(C5CCC5)c4)C=C32)co1 [Example 108b, 2-(4-cyclobutyl-1H-imidazol-1-yl)-9-(2-methyloxazol-4-yl)-7,8-dihydro-[1,4]diazepino[7,1-a]isoquinolin-5(4H)-one]	23 nM	1920 nM
